{"source": "PubChem BioAssay AID1626", "about": "(SRMLSC, 2009)", "tested_on": "M. tuberculosis H37Rv growth inhibition", "assay": "M. tuberculosis H37Rv growth inhibitors, H37Rv strain (AID 1626)", "conditions": "for IC90: measured here: IC90 against H37Rv; for CC50: measured here: Vero cell cytotoxicity", "data": [{"smiles": "Cc1ccc2nc(Cl)c(/C=C/C(=O)c3ccco3)cc2c1", "values": [{"measurement": "IC50", "value": 2.26, "unit": "µM"}, {"measurement": "IC90", "value": 4.01, "unit": "µM"}, {"measurement": "CC50", "value": 25, "unit": "µM"}]}, {"smiles": "Cc1ccc(-c2nsc(SCC(=O)Nc3ccc4c(c3)OCO4)n2)cc1", "values": [{"measurement": "IC50", "value": 0.892, "unit": "µM"}, {"measurement": "IC90", "value": 2.51, "unit": "µM"}]}, {"smiles": "CCOc1ccc(N=C/C=C/c2ccccc2)c(O)c1", "values": [{"measurement": "IC50", "value": 0.939, "unit": "µM"}, {"measurement": "IC90", "value": 5.41, "unit": "µM"}, {"measurement": "CC50", "value": 38, "unit": "µM"}]}, {"smiles": "C=C1C(=O)[C@@]23[C@H](O)C[C@@H]4C(C)(C)CC[C@H](O)[C@@]4(C)[C@@H]2CC[C@@H]1[C@H]3O", "values": [{"measurement": "IC50", "value": 8.62, "unit": "µM"}, {"measurement": "IC90", "value": 14.6, "unit": "µM"}, {"measurement": "CC50", "value": 5.78, "unit": "µM"}]}, {"smiles": "COc1ccc(N=Cc2c[nH][nH]c2=O)cc1", "values": [{"measurement": "IC90", "value": "> 100", "unit": "µM"}]}, {"smiles": "O=C(Nc1cc(Cl)ccc1O)c1cc2n(n1)C(C(F)(F)F)CC(c1ccc3c(c1)OCO3)N2", "note": "(centres undefined)", "values": [{"measurement": "CC50", "value": "> 40", "unit": "µM"}]}, {"smiles": "Cn1c(NCc2ccco2)nc2c1c(=O)n(Cc1ccc(Br)cc1)c(=O)n2C", "values": [{"measurement": "IC50", "value": 99.3, "unit": "µM"}, {"measurement": "IC90", "value": "> 100", "unit": "µM"}, {"measurement": "CC50", "value": "> 40", "unit": "µM"}]}, {"smiles": "CCN(CC)c1ccc(N=Cc2ccc([N+](=O)[O-])o2)cc1", "values": [{"measurement": "IC50", "value": 8.8, "unit": "µM"}, {"measurement": "IC90", "value": 45.6, "unit": "µM"}, {"measurement": "CC50", "value": "> 40", "unit": "µM"}]}, {"smiles": "CCOC(=O)COc1ccc2c(C#N)c3ccccn3c2c1", "values": [{"measurement": "IC50", "value": 1.67, "unit": "µM"}, {"measurement": "IC90", "value": 8.66, "unit": "µM"}]}, {"smiles": "C1=C(CCNc2ncnc3c2[nH]c2ccccc23)CCCC1", "values": [{"measurement": "IC50", "value": 1.52, "unit": "µM"}, {"measurement": "IC90", "value": 1.72, "unit": "µM"}, {"measurement": "CC50", "value": 5.24, "unit": "µM"}]}, {"smiles": "CCOc1ccc(NCC(=O)Nc2ccc(Cl)cc2C)cc1", "values": [{"measurement": "IC50", "value": 8.53, "unit": "µM"}, {"measurement": "IC90", "value": "> 100", "unit": "µM"}]}, {"smiles": "COc1cccc(/C=C/C(=O)c2cccc([N+](=O)[O-])c2)c1", "values": [{"measurement": "IC50", "value": 6.89, "unit": "µM"}, {"measurement": "IC90", "value": "> 100", "unit": "µM"}, {"measurement": "CC50", "value": 35.9, "unit": "µM"}]}, {"smiles": "COC(=O)CSc1nc(N)c(C#N)c(CC(C)C)c1C#N", "values": [{"measurement": "IC50", "value": 2.91, "unit": "µM"}, {"measurement": "IC90", "value": 57.5, "unit": "µM"}]}, {"smiles": "Cc1[nH]n2c(=O)cc(-c3ccc([N+](=O)[O-])cc3)nc2c1-c1ccccc1", "values": [{"measurement": "IC50", "value": 0.747, "unit": "µM"}, {"measurement": "IC90", "value": 1.43, "unit": "µM"}, {"measurement": "CC50", "value": 35.1, "unit": "µM"}]}, {"smiles": "Oc1cccc(-c2nc3ccc4ccccc4c3c3c2CCC3)c1", "values": [{"measurement": "IC50", "value": 16.8, "unit": "µM"}, {"measurement": "IC90", "value": 27, "unit": "µM"}, {"measurement": "CC50", "value": "> 40", "unit": "µM"}]}, {"smiles": "Cc1ccc(C(=O)/C=C\\Nc2ccc(C)c(C)c2)cc1", "values": [{"measurement": "IC90", "value": "> 100", "unit": "µM"}]}, {"smiles": "COc1cc(/C=C2\\COC/C(=C\\c3ccc(O)c(OC)c3)C2=O)ccc1O", "values": [{"measurement": "IC50", "value": 5.7, "unit": "µM"}, {"measurement": "IC90", "value": 10.8, "unit": "µM"}, {"measurement": "CC50", "value": 21.8, "unit": "µM"}]}, {"smiles": "OC(COC(c1ccc(Cl)cc1)c1ccc(Cl)cc1)CN1CCN(c2ccccn2)CC1", "note": "(centres undefined)", "values": [{"measurement": "IC50", "value": 9.79, "unit": "µM"}, {"measurement": "IC90", "value": 28.3, "unit": "µM"}, {"measurement": "CC50", "value": 35.3, "unit": "µM"}]}, {"smiles": "CC(=O)Nc1sc2c(c1CN1CCN(c3ccc(F)cc3)CC1)CCCC2", "values": [{"measurement": "IC50", "value": 13.2, "unit": "µM"}, {"measurement": "IC90", "value": "> 100", "unit": "µM"}, {"measurement": "CC50", "value": "> 40", "unit": "µM"}]}, {"smiles": "COc1cc(/C=N/NC(=Nc2ccc(C)cc2)c2nc3ccccc3s2)ccc1O", "values": [{"measurement": "IC90", "value": "> 100", "unit": "µM"}, {"measurement": "CC50", "value": "> 40", "unit": "µM"}]}, {"smiles": "O=C(C[n+]1cc(-c2ccc(F)cc2)n2c1CCC2)N1c2ccccc2Sc2ccccc21", "values": [{"measurement": "IC50", "value": 38.7, "unit": "µM"}, {"measurement": "IC90", "value": "> 100", "unit": "µM"}]}, {"smiles": "C/C(=C\\C(=O)c1ccncc1)Nc1ccccc1O", "values": [{"measurement": "IC50", "value": "< 0.195", "unit": "µM"}, {"measurement": "IC90", "value": 28.2, "unit": "µM"}, {"measurement": "CC50", "value": "> 40", "unit": "µM"}]}, {"smiles": "COc1ccc(NC(=O)CSC2=NCCN2)cc1", "values": [{"measurement": "IC90", "value": "> 100", "unit": "µM"}]}, {"smiles": "Cc1cccc(NC(=O)c2nc[nH]c2C(=O)N[C@@H](C)C(=O)OCc2ccccc2)c1", "values": [{"measurement": "IC50", "value": 59.9, "unit": "µM"}, {"measurement": "IC90", "value": "> 100", "unit": "µM"}]}, {"smiles": "O=C(COC(=O)c1ccccc1Br)Nc1ccccc1F", "values": [{"measurement": "IC90", "value": "> 100", "unit": "µM"}]}, {"smiles": "CCOc1ccc(NC2C=CS(=O)(=O)C2)cc1", "note": "(centres undefined)", "values": [{"measurement": "IC90", "value": "> 100", "unit": "µM"}]}, {"smiles": "CCCCc1c(C)c(C#N)c2nc3ccccc3n2c1Cl", "values": [{"measurement": "IC50", "value": 10.1, "unit": "µM"}, {"measurement": "IC90", "value": "> 100", "unit": "µM"}, {"measurement": "CC50", "value": 5.35, "unit": "µM"}]}, {"smiles": "O=C(CSc1nc(-c2ccccc2Cl)ns1)Nc1ccc2c(c1)OCO2", "values": [{"measurement": "CC50", "value": "> 40", "unit": "µM"}]}, {"smiles": "O=C(Nc1ccc(N2CCN(C(=O)c3ccco3)CC2)cc1)C(c1ccccc1)c1ccccc1", "values": [{"measurement": "IC50", "value": 12, "unit": "µM"}, {"measurement": "IC90", "value": 14.1, "unit": "µM"}, {"measurement": "CC50", "value": "> 40", "unit": "µM"}]}, {"smiles": "O=C(Nc1nnc(-c2ccc(Cl)cc2)o1)C1=COCCO1", "values": [{"measurement": "IC50", "value": 6.4, "unit": "µM"}, {"measurement": "IC90", "value": 11.4, "unit": "µM"}, {"measurement": "CC50", "value": "> 40", "unit": "µM"}]}, {"smiles": "Cc1ccc(NC(=O)NC2CCCCC2)cc1Cl", "values": [{"measurement": "IC50", "value": 6.04, "unit": "µM"}, {"measurement": "IC90", "value": "> 100", "unit": "µM"}, {"measurement": "CC50", "value": "> 40", "unit": "µM"}]}, {"smiles": "CCCCc1c(C)c(C#N)c2[nH]c3ccccc3n2c1=O", "values": [{"measurement": "IC50", "value": 23.2, "unit": "µM"}, {"measurement": "IC90", "value": "> 100", "unit": "µM"}, {"measurement": "CC50", "value": 22.9, "unit": "µM"}]}, {"smiles": "C#CCOCCOCCOCCNc1nc(N2CCN(C(=O)[C@H](Cc3ccc(O)cc3)n3cc([C@@H](N)C(C)CC)nn3)CC2)nc(N2CCN(C(=O)[C@H](Cc3cc4ccccc4[nH]3)n3cc([C@@H](N)CC(C)C)nn3)CC2)n1", "note": "(some centres undefined)", "values": [{"measurement": "IC50", "value": 7.36, "unit": "µM"}, {"measurement": "IC90", "value": 21.5, "unit": "µM"}]}, {"smiles": "CC(=O)Nc1nnc(-c2ccc3c(c2)CCCC3)o1", "values": [{"measurement": "IC50", "value": 11.9, "unit": "µM"}, {"measurement": "IC90", "value": 23, "unit": "µM"}, {"measurement": "CC50", "value": "> 40", "unit": "µM"}]}, {"smiles": "Nc1cc(=O)[nH]c(SCC(=O)Nc2ccccc2-c2ccccc2)n1", "values": [{"measurement": "IC90", "value": "> 100", "unit": "µM"}, {"measurement": "CC50", "value": "> 40", "unit": "µM"}]}, {"smiles": "c1ccc(Oc2nc(-c3ccccn3)nc3ccccc23)cc1", "values": [{"measurement": "IC50", "value": 2.71, "unit": "µM"}, {"measurement": "IC90", "value": 13.8, "unit": "µM"}, {"measurement": "CC50", "value": "> 40", "unit": "µM"}]}, {"smiles": "COc1cc(CNCc2ccccn2)ccc1OCc1ccc(Cl)c(Cl)c1", "values": [{"measurement": "IC50", "value": 5.63, "unit": "µM"}, {"measurement": "IC90", "value": 7.7, "unit": "µM"}, {"measurement": "CC50", "value": "> 40", "unit": "µM"}]}, {"smiles": "CCOC(=O)N1CCN=C1SCc1ccc(C(F)(F)F)cc1", "values": [{"measurement": "IC90", "value": "> 100", "unit": "µM"}]}, {"smiles": "CCOC(=O)c1cnn(-c2nc3c(C)cccc3s2)c1C(F)(F)F", "values": [{"measurement": "IC50", "value": 54.6, "unit": "µM"}, {"measurement": "IC90", "value": "> 100", "unit": "µM"}, {"measurement": "CC50", "value": "> 40", "unit": "µM"}]}, {"smiles": "CCCCOC(=O)CSc1nc(N)c(C#N)c(-c2ccc(OC)cc2)c1C#N", "values": [{"measurement": "IC50", "value": 1.14, "unit": "µM"}, {"measurement": "IC90", "value": 2.39, "unit": "µM"}]}, {"smiles": "N#Cc1ncc(-c2ccc3c(c2)OCCOCCOCCOCCOCCO3)nc1C#N", "values": [{"measurement": "IC50", "value": 1.8, "unit": "µM"}, {"measurement": "IC90", "value": 3.08, "unit": "µM"}, {"measurement": "CC50", "value": 22.6, "unit": "µM"}]}, {"smiles": "Cc1ccccc1-c1nc2cc(N)ccc2o1", "values": [{"measurement": "IC50", "value": 15.3, "unit": "µM"}, {"measurement": "IC90", "value": "> 100", "unit": "µM"}]}]}
